Data taken from ChEMBL document CHEMBL1201862, “PubChem BioAssay data set” (2004).
Active and inactive are the calls of the source.

Experiments:
[1] = target: Beta-2 adrenergic receptor (Homo sapiens, UniProt P07550); test: beta2AR agonists driving receptor internalization, dose response, cell-based, FAP fluorogen, flow cytometry, cherry pick 1 (AID 588763); assay type: functional
[2] = target: T1, Endoribonuclease toxin MazF (Escherichia coli K-12, UniProt P0AE70); test: MazF toxin RNase activators, dose response, biochemical, fluorescence, single-stranded RNA substrate, uHTS hits (AID 588481); assay type: functional
[3] = target: Galanin receptor type 2 (Homo sapiens, UniProt O43603); test: Dose Response cell-based high-throughput screening assay to identify antagonists of galanin receptor 2 (GALR2). [Related pubchem assays: 828, 866 ]; assay type: functional
[4] = target: T1, Endoribonuclease toxin MazF; test: fluorescent RNA oligo signal without MazF, dose response, counter-screen for MazEF activator project, biochemical, fluorescence, single-stranded RNase substrate (AID 588502); assay type: functional
[5] = system: Streptococcus; test: Group A Streptococcus viability loss, dose response, counter-screen for streptokinase expression inhibitor project, luminescence, BacTiterGlo (AID 1915); assay type: functional, organism-based;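 note: potency for reduction of bacterial viability or growth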
[6] = system: Streptococcus sp. 'group A'; test: growth inhibition of control SK(-) GAS strain, dose response, counter-screen for streptokinase expression inhibitor project, luminescence, kanamycin, BacTiterGlo, confirmation (AID 1900); assay type: functional, organism-based
[7] = target: T2, Streptokinase A (Streptococcus pyogenes serotype M1, UniProt P10520); test: S. pyogenes streptokinase expression inhibitors, potency, dose response, plasminogen activation absorbance, OD405 (AID 1914); assay type: functional, Streptococcus pyogenes M1 GAS;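 note: secreted streptokinase activity via plasminogen activation per viability signal from cell pellet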
T2 sequence (P10520 whole entry): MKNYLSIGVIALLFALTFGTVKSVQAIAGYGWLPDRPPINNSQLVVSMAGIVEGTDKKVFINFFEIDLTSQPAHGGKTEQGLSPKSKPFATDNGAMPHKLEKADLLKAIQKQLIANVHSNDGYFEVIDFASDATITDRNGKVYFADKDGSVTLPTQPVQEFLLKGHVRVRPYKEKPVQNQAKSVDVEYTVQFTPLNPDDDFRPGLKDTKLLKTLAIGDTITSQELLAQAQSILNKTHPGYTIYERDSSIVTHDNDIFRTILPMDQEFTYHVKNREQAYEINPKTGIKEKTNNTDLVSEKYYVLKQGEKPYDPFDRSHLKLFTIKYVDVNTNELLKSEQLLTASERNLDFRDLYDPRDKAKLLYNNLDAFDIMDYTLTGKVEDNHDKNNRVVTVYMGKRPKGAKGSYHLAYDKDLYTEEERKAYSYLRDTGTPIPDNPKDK

[8] = system: HeLa; test: HeLa cell cytotoxicity, dose response, cytotoxicity control, 48 h, plate reader, cherry-picks (AID 504942); assay type: functional, cell-based; settings: Homo sapiens
[9] = target: T3, Acyl-homoserine lactone acylase PvdQ (Pseudomonas aeruginosa (strain LESB58), UniProt Q9I194); test: P. aeruginosa PvdQ acylase inhibitors, dose response, biochemical, fluorescence, plate reader and imaging, cherry-picks (AID 493231)
T3 sequence (Q9I194 whole entry): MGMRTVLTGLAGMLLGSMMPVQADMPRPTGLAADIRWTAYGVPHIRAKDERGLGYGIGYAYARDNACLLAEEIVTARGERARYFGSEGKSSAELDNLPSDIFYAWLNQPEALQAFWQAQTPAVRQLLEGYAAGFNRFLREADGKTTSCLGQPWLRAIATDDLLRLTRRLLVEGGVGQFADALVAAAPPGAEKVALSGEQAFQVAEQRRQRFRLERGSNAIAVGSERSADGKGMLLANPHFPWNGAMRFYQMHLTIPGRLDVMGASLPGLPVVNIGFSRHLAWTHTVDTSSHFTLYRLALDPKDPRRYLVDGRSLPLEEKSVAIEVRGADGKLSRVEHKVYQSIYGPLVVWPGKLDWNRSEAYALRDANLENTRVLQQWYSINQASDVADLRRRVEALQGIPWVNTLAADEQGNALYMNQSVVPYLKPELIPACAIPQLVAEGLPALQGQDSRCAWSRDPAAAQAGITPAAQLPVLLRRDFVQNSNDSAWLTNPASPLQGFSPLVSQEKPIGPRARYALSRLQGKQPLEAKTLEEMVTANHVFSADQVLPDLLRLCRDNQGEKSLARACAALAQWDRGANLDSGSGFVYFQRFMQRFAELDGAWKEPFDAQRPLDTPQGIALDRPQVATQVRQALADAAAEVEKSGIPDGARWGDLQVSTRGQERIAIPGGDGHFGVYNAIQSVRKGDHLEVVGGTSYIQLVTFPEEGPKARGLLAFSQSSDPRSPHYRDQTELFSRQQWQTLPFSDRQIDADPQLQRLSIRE

[10] = Luminescence Cell-Based Dose Response Follow up to Identify Inhibitors of Platelet Dense Granule Release. [Related pubchem assays (depositor defined):AID1663, AID1678, AID2398]; assay type: functional
[11] = blockers of SFLLRN-triggered platelet ATP secretion – cell-based, human platelets, luminescence, dry powder, dose response (AID 493100); assay type: functional
[12] = target: DNA topoisomerase (Yersinia pestis, UniProt A0A2S9PM60); test: Y. pestis Topo-I inhibitors, cleavage product readout, dose response, biochemical, cherry-pick (AID 588525)
[13] = system: Jurkat; test: SAR Analysis of small molecule inhibitors of T-cell specific antigen receptor-induced NF-kB activation in a Jurkat cell line using a luminescence assay - Set 2. [Related pubchem assays (depositor defined):AID435003, AID435012, AID465]; assay type: functional, cell-based; settings: Homo sapiens
[14] = system: HEK293; test: cytotoxicity in HEK293T NF-kB-Luc cells, SAR follow-up, cytotoxicity control for NF-kB activator project, cell-based, resazurin fluorescence (AID 493251); assay type: functional; settings: Homo sapiens
[15] = system: HEK293; test: SAR Analysis of small molecule inhibitors of T-cell specific antigen receptor-induced NF-kB activation in a HEK-293T cell line using a luminescence assay - Set 2. [Related pubchem assays (depositor defined):AID435003, AID435012, AID489026]; assay type: functional, cell-based; settings: Homo sapiens
[16] = target: T4, Hexokinase HKDC1 (Homo sapiens, UniProt Q2TB90); test: SAR analysis of small molecule inhibitors of hexokinase domain containing I (HKDC1). [Related pubchem assays (depositor defined):AID493160, AID493190]; assay type: functional
T4 sequence (Q2TB90 whole entry): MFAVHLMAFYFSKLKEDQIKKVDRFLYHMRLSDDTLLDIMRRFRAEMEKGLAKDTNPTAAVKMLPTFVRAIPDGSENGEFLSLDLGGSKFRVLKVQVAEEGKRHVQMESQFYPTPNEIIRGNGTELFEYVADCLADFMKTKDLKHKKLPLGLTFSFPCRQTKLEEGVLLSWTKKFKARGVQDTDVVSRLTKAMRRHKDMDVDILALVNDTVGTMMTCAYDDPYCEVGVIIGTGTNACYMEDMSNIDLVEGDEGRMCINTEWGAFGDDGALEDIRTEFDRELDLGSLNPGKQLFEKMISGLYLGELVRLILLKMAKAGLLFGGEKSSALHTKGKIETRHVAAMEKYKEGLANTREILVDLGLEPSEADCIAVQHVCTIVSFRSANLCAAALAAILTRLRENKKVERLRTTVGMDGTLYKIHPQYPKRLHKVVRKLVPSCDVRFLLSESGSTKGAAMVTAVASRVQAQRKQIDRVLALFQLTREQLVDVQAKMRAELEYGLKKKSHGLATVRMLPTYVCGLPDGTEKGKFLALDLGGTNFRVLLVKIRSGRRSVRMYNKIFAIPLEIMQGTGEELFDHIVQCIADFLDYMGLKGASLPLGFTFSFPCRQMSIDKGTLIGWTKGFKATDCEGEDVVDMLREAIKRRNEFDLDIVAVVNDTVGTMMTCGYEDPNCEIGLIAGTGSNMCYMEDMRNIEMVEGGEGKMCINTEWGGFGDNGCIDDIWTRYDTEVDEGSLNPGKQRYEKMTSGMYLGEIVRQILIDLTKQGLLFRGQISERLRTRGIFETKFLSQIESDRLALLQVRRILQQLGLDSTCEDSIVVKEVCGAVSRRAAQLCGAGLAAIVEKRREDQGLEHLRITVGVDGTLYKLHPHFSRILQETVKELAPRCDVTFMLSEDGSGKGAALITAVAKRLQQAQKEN

[17] = target: T5, Hexokinase-1 (Homo sapiens, UniProt P19367); test: SAR analysis of small molecule inhibitors of hexokinase domain containing I (HKDC1) in the hexokinase 1 selectivity assay. [Related pubchem assays (depositor defined):AID493160, AID493190]; assay type: functional
T5 sequence (P19367 whole entry): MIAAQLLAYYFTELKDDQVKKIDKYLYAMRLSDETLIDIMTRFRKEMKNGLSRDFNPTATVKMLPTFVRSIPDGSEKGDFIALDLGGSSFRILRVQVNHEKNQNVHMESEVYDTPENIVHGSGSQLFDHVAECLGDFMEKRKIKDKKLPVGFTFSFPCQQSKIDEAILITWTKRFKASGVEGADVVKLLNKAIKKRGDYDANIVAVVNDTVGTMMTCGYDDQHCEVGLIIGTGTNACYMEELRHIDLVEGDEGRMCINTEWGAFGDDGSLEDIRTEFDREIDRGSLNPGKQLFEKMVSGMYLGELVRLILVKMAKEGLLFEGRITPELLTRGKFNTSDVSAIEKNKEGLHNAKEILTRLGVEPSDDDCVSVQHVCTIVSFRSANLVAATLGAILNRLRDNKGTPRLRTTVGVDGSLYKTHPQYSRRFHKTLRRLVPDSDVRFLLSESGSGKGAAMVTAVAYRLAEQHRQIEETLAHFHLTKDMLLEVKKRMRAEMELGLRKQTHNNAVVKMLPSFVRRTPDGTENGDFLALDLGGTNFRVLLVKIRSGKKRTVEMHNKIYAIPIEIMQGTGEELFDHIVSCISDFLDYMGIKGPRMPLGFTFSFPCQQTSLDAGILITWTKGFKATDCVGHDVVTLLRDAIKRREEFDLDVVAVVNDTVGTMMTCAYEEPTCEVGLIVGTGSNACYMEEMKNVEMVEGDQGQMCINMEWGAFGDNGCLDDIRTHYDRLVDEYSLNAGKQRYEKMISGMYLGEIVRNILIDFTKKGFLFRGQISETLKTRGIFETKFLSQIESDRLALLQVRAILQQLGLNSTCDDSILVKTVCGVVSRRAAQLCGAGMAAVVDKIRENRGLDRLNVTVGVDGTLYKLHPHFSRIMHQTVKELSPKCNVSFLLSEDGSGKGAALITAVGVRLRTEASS

[18] = viability loss in Mcl1-dependent HMC-1-8 cells, dose response, selectivity assay for A1 inhibitor project, cell-based, luminescence, dry powder (AID 504415); assay type: functional; settings: Homo sapiens
[19] = cytotoxicity in HEK-293T cells, dose response, cytotoxicity control for BCR NF-kB inhibitor project, luminescence, B-cell screen hits (AID 489021); assay type: functional, cell-based;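 note: HEK-293T cells carrying an NF-kB luciferase reporter; cells exposed to compound for about 14 hours before viability readout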
[20] = target: Protein disulfide-isomerase (Homo sapiens, UniProt P07237); test: PDI inhibitors, insulin aggregation turbidity, dose response, biochemical, absorbance, cherry-picked samples (AID 602350); assay type: functional
Chain of Protein disulfide-isomerase (P07237 whole entry): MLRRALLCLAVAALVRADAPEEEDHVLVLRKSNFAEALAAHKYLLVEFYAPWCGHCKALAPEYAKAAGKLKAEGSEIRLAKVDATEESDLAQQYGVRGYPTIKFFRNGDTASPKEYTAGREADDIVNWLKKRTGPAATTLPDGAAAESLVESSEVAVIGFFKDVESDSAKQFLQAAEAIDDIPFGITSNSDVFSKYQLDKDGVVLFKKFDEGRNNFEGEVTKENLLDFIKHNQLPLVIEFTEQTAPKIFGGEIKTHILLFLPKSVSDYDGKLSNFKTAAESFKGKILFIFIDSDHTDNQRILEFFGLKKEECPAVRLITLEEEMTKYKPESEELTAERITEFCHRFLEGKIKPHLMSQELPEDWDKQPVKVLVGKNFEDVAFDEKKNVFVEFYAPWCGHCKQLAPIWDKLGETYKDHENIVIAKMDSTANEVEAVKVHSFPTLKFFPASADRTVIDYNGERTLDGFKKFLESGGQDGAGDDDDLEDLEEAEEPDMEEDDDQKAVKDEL

T1 sequence (P0AE70 whole entry): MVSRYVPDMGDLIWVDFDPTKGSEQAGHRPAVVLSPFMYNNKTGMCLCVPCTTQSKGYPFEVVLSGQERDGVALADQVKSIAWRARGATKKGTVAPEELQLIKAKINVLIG
Chain of Beta-2 adrenergic receptor (P07550 whole entry): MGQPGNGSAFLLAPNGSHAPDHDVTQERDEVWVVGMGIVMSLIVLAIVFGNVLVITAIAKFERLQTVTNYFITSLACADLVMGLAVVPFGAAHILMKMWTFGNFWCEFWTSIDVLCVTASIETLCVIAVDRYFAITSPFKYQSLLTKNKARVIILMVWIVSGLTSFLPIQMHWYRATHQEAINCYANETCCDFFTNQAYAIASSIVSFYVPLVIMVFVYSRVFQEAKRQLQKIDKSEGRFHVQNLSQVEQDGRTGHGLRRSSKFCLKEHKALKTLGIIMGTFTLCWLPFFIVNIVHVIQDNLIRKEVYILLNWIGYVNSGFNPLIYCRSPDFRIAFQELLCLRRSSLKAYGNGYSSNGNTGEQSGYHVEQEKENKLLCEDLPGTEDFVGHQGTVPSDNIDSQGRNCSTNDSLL
Chain of DNA topoisomerase (A0A2S9PM60 whole entry): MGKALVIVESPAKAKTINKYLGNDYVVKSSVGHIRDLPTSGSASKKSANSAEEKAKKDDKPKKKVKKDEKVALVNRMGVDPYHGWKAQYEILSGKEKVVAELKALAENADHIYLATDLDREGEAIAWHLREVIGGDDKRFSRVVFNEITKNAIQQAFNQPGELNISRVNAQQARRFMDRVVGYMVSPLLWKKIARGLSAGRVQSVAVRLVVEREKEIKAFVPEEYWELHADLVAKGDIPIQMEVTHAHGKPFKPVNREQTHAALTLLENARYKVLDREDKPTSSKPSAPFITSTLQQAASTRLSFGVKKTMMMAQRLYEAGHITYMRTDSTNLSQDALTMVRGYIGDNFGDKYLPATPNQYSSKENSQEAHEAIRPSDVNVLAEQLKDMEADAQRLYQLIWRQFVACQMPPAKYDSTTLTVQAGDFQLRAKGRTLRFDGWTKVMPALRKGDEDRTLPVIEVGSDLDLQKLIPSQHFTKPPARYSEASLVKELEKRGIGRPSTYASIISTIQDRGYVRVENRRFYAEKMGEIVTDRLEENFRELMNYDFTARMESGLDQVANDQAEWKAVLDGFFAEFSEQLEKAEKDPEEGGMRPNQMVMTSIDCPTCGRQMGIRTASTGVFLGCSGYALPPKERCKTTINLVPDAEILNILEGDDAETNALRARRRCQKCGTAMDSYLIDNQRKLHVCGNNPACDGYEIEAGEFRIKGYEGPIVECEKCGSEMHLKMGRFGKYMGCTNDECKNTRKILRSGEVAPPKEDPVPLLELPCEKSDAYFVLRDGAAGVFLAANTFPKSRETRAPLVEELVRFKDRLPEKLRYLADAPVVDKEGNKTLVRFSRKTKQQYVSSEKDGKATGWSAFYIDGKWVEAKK
Chain of Galanin receptor type 2 (O43603 whole entry): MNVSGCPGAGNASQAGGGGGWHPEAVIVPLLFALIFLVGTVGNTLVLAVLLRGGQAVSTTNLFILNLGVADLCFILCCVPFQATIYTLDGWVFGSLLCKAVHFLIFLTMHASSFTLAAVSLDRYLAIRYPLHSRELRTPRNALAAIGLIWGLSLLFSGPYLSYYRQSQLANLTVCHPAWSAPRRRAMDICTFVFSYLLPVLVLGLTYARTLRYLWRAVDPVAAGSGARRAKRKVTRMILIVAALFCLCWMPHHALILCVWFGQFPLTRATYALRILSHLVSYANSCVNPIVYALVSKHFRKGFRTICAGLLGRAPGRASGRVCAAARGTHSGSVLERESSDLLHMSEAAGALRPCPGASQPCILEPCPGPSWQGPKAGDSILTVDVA

CCc1ccc(CN2CCC(Oc3ccc(C(=O)N4CCCC4)cc3)CC2)cc1
EC50 [1]: 0.936 µM (active)

O=C(Cc1cccs1)Nc1cccc(-c2nc3cc4ccccc4cc3[nH]2)c1
EC50 [2]: > 99 µM (inactive)
IC50 [3]: > 42 µM (not active)
EC50 [4]: > 99 µM (inactive)
EC50 [5]: 14.9 µM (active)
EC50 [6]: 4.51 µM (active)
EC50 [7]: > 150 µM (not active)

Cc1cc(NC(=O)Nc2ccccc2[N+](=O)[O-])no1
AC50 [8]: > 380 µM (inactive)
AC50 [9]: 2.02 µM (active)

CC(=O)Nc1ccc(/C(C)=N/NC(=O)C2CCCC2)cc1
EC50 [10]: 11.3 µM (active)
AC50 [11]: 126 µM (active)

O=C(C[C@H]1C/C=C\CC[C@H](Cc2ccc(F)cc2)C(=O)O[C@@H](c2ccccc2)CNC1=O)N[C@@H](CO)Cc1ccccc1
AC50 [12]: > 38 µM (inactive)

CCCCNC(=O)CCc1nc(-c2ccc(C(C)(C)C)cc2)no1
IC50 [13]: > 79 µM (inactive)
IC50 [14]: > 80 µM (inactive)
IC50 [15]: 14.5 µM (active)

O=c1c2ccccc2nc(/C=C/c2cccc(O)c2)n1Cc1ccccc1
IC50 [16]: > 80 µM (inactive)
IC50 [17]: > 80 µM (inactive)

O=C(Oc1cccc(/C=N/Nc2nc(Nc3ccccc3)nc(N3CCOCC3)n2)c1)c1ccco1
EC50 [5]: 16 µM (active)
AC50 [18]: 56.1 µM (active)
EC50 [6]: 9.28 µM (active)
IC50 [19]: > 80 µM (inactive)
EC50 [7]: > 150 µM (not active)

C[C@@H]1CN([C@H](C)CO)C(=O)c2cccc(NS(C)(=O)=O)c2O[C@H]1CN(C)Cc1ccc(Oc2ccccc2)cc1
AC50 [20]: 18.8 µM (active)
